Two compounds from patent US11986540B2, “Compositions including pafolacianine for the identification of malignant lesions” (ON TARGET LABORATORIES, LLC., priority 2022, dated 2024) can be followed below.

The subject of data set [1] is FR-positive KB cell tumor xenografts. Nature of the data set: Whole body imaging and tissue distribution, FR-positive KB tumor xenografts. Format: in vivo, mice. Particulars: compared with pafolacianine. How it is done:
Whole body imaging and tissue distribution of pafolacianine and OTL0039 was performed in female nu/nu mice bearing FR-positive KB cell tumor xenografts. […] This observation was consistent with the lower binding affinity of the D-isomer for FR compared with the L-isomer. Tumor fluorescence was brighter in mice receiving pafolacianine compared with other folate-conjugated near infrared dyes such as LS288, IR800 and ZW800.
The optimal dose range for pafolacianine with respect to tumor-to-background ratio in FR-positive tumor-bearing mice was 1 to 30 nmol/mouse, with lower fluorescence intensity observed in tumors at a lower dose (0.3 nmol) and higher fluorescence intensity observed in other tissues at doses above 30 nmol. In a second experiment, pafolacianine whole body imaging and tissue distribution was examined again; however, this experiment was performed in female nu/nu mice bearing FR-negative A549 cell tumor xenografts.

Data set [2] concerns cytochrome P450 (CYP) enzymes. Nature of the data set: Metabolism by CYP enzymes. The data set is classed as in vitro ADME.
Data set [3] is described as follows: Excretion after single IV infusion of radiolabeled pafolacianine sodium. The data set is classed as in vivo. Particulars: after approximately 3-5 weeks.

For the compound `CC1(C)C(=CC=C2CCCC(C=CC3=[N+](CCCCS(=O)(=O)[O-])c4ccc(S(=O)(=O)O)cc4C3(C)C)=C2Oc2ccc(C[C@@H](NC(=O)c3ccc(NCc4cnc5nc(N)[nH]c(=O)c5n4)cc3)C(=O)O)cc2)N(CCCCS(=O)(=O)O)c2ccc(S(=O)(=O)O)cc21` [OTL0039, reference compound], the “fluorescence signal intensity in tumors and kidneys” value in data set [1] is “weaker fluorescence signal intensity than pafolacianine”.
For the compound `CC1(C)C(/C=C/C2=C(Oc3ccc(C[C@H](NC(=O)c4ccc(NCc5cnc6nc(N)[nH]c(=O)c6n5)cc4)C(=O)[O-])cc3)C(=C/C=C3/N(CCCCS(=O)(=O)[O-])c4ccc(S(=O)(=O)[O-])cc4C3(C)C)/CCC2)=[N+](CCCCS(=O)(=O)[O-])c2ccc(S(=O)(=O)[O-])cc21.O.[Na+].[Na+].[Na+].[Na+]` [pafolacianine sodium, (S)-2-(4-(((2-amino-4-oxo-3,4-dihydropteridin-6-yl)methyl)amino)benzamido)-3-(4-(((E)-2-((E)-2-(3,3-dimethyl-5-sulfonato-1-(4-sulfonatobutyl)-3H-indol-1-ium-2-yl)vinyl)-6-((E)-2-(3,3-dimethyl-5-sulfonato-1-(4-sulfonatobutyl)indolin-2-ylidene)ethylidene)cyclohex-1-en-1-1)oxy)phenyl)propanoate hydrate tetrasodium], in data set [2], the “metabolism by cytochrome P450 (CYP) enzymes” value is listed as “not metabolized”. In data set [3], the “dose recovered in feces” value was 15.8%; the “dose recovered in urine” value is 19.1%; the “dose recovered in urine and feces” value is “approximately 35%”.
